Reference: US20230346831A1, “METHODS FOR TREATING […] USING LOW DOSE CARBON MONOXIDE” (priority 2020, published 2023)
“And” between values parts separate entries of the source, which are not always exact repeats. Equal entries are not always repeated.

System: MCF7/TGL cells
Assay: metabolomic assay (polar metabolite profiling, mass spectrometry)
Type: cell-based, human
Method: Extraction and analysis were performed with the same parameters as the method disclosed in FIG. 7.
7 × 10^6 cells were seeded in 10-cm cell culture plates with DMEM containing 10% FBS, 0.2 mM L-glutamine and 1% penicillin/streptomycin. Additionally, MCF7/TGL/pQ was cultured in media containing 0.5 µgml^-1 puromycin and 25 mM HEPES. After 16 hours of incubation, metabolites were extracted from the cells using 80% methanol. The remaining steps were carried out by Weill Cornell Medicine Proteomics and Metabolomics Core Facility according to M. D. Goncalves et al., Proc Natl Acad Sci USA 115, E743-E752 (2018). All data analyses were done using MetaboAnalyst 4.0 (www.metaboanalyst.ca/).
To investigate whether 250 ppm CO mimics hypoxia, the HiF1α protein levels were examined in CO treated MCF7/TGL and MDA-MB-231/TGL cells. […] To determine whether 250 ppm CO affects metabolism, polar metabolites were profiled using two breast cancer cell lines, MCF7/TGL and MDA-MB-231/TGL (FIGS. 7-9).

[1] = MCF7/TGL cells, 250 ppm CO, 16 hours

[C-]#[O+] [CO, Carbon monoxide]
Peak Height Cytosine (HMDB00630, MCF7/TGL cells treated with CO, replicates CO 1-3): 153,235 and 158,066 and 214,404 | Peak Height L-Glutamine (HMDB00641, MCF7/TGL cells treated with CO, replicates CO 1-3): 2,010,884,000 and 2,067,120,000 and 2,186,859,000 | Peak Height D-Fructose (HMDB00660, MCF7/TGL cells treated with CO, replicates CO 1-3): 2,161,466 and 2,426,370 and 4,390,968 | Peak Height Indolelactic acid (HMDB00671, MCF7/TGL cells treated with CO, replicates CO 1-3): 168,415 and 166,030 and 323,966 | Peak Height Indoxyl sulfate (HMDB00682, MCF7/TGL cells treated with CO, replicates CO 1-3): 31,554 and 19,025 and 38,019 | Peak Height L-Kynurenine (HMDB00684, MCF7/TGL cells treated with CO, replicates CO 1-3): 186,534 and 218,684 and 386,445 | Peak Height L-Leucine (HMDB00687, MCF7/TGL cells treated with CO, replicates CO 1-3): 319,755,000 and 339,183,100 and 446,258,700 | Peak Height L-Methionine (HMDB00696, MCF7/TGL cells treated with CO, replicates CO 1-3): 110,122,300 and 114,069,500 and 202,567,100 | Peak Height Hexanoylcarnirine (HMDB00705, MCF7/TGL cells treated with CO, replicates CO 1-3): 309,788 and 384,626 and 554,943 | Peak Height Hippuric acid (HMDB00714, MCF7/TGL cells treated with CO, replicates CO 1-3): 41,839 and 33,037 and 50,895 | Peak Height Kynurenic acid (HMDB00715, MCF7/TGL cells treated with CO, replicates CO 1-3): 57,830 and 46,636 and 67,981 | Peak Height Malic acid (HMDB00744, MCF7/TGL cells treated with CO, replicates CO 1-3): 118,667,000 and 141,604,200 and 190,900,500 | Peak Height N-Acetyl-L-alanine (HMDB00766, MCF7/TGL cells treated with CO, replicates CO 1-3): 3,050,982 and 3,282,590 and 5,343,814 | Peak Height Phenyllactic acid (HMDB00779, MCF7/TGL cells treated with CO, replicates CO 1-3): 375,745 and 377,557 and 505,569 | Peak Height 3-Phosphoglyceric acid (HMDB00807, MCF7/TGL cells treated with CO, replicates CO 1-3): 830,372 and 1,313,918 and 2,225,910 | Peak Height N-Acetyl-L-aspartic acid (HMDB00812, MCF7/TGL cells treated with CO, replicates CO 1-3): 107,096,600 and 121,628,700 and 146,462,300 | Peak Height Phenylacetylglycine (HMDB00821, MCF7/TGL cells treated with CO, replicates CO 1-3): 1,455,001 and 1,300,695 and 2,222,377 | Peak Height Propionylcarnitine (HMDB00824, MCF7/TGL cells treated with CO, replicates CO 1-3): 88,247,270 and 88,089,220 and 114,107,300 | Peak Height Ureidosuccinic acid (HMDB00828, MCF7/TGL cells treated with CO, replicates CO 1-3): 967,259 and 2,115,336 and 2,977,458 | Peak Height L-Valine (HMDB00883, MCF7/TGL cells treated with CO, replicates CO 1-3): 166,887,800 and 164,029,200 and 219,042,800 | Peak Height Acetylcholine (HMDB00895, MCF7/TGL cells treated with CO, replicates CO 1-3): 79,843,420 and 75,982,720 and 87,382,500 | Peak Height NAD (HMDB00902, MCF7/TGL cells treated with CO, replicates CO 1-3): 6,156,942 and 7,187,370 and 12,756,100 | Peak Height Citrulline (HMDB00904, MCF7/TGL cells treated with CO, replicates CO 1-3): 9,044,262 and 10,234,370 and 14,264,050 | Peak Height L-Tryptophan (HMDB00929, MCF7/TGL cells treated with CO, replicates CO 1-3): 30,996,070 and 34,786,840 and 68,643,900 | Peak Height Uridine diphosphate glucuronic acid (HMDB00935, MCF7/TGL cells treated with CO, replicates CO 1-3): 726,138 and 548,546 and 770,082 | Peak Height S-Adenosylhomocysteine (HMDB00939, MCF7/TGL cells treated with CO, replicates CO 1-3): 56,652 and 145,088 and 413,677 | Peak Height Threonic acid (HMDB00943, MCF7/TGL cells treated with CO, replicates CO 1-3): 76,882,710 and 94,196,330 and 129,619,900 | Peak Height dGDP (HMDB00960, MCF7/TGL cells treated with CO, replicates CO 1-3): 686,954 and 539,654 and 784,042 | Peak Height Hypotaurine (HMDB00965, MCF7/TGL cells treated with CO, replicates CO 1-3): 4,796,295 and 5,519,371 and 5,943,089 | Peak Height Adenosine phosphosulfate (HMDB01003, MCF7/TGL cells treated with CO, replicates CO 1-3): 14,981 and 16,338 | Peak Height Deoxyribose 5-phosphate (HMDB01031, MCF7/TGL cells treated with CO, replicates CO 1-3): 19,019 and 34,976 and 30,540 | Peak Height S-Lactoylglutathione (HMDB01066, MCF7/TGL cells treated with CO, replicates CO 1-3): 397,298 and 293,636 and 484,692 | Peak Height D-Sedoheptulose 7-phosphate (HMDB01068, MCF7/TGL cells treated with CO, replicates CO 1-3): 151,546 and 165,071 and 234,010 | Peak Height D-Glyceraldehyde 3-phosphate (HMDB01112, MCF7/TGL cells treated with CO, replicates CO 1-3): 1,475,183 and 1,160,887 and 1,058,732 | Peak Height N-Acetylglutamic acid (HMDB01138, MCF7/TGL cells treated with CO, replicates CO 1-3): 567,078 and 897,146 and 1,371,040 | Peak Height 5′-Methylthioadenosine (HMDB01173, MCF7/TGL cells treated with CO, replicates CO 1-3): 269,714 and 419,042 and 1,274,477 | Peak Height S-Adenosylmethionine (HMDB01185, MCF7/TGL cells treated with CO, replicates CO 1-3): 9,310,209 and 12,590,700 and 17,427,170 | Peak Height Guanosine diphosphate (HMDB01201, MCF7/TGL cells treated with CO, replicates CO 1-3): 35,607 and 34,452 and 43,718 | Peak Height Allantoic acid (HMDB01209, MCF7/TGL cells treated with CO, replicates CO 1-3): 44,843 and 53,026 and 96,308 | Peak Height 5-Thymidylic acid (HMDB01227, MCF7/TGL cells treated with CO, replicates CO 1-3): 266,456 and 133,281 and 141,715 | Peak Height Glucosamine 6-phosphate (HMDB01254, MCF7/TGL cells treated with CO, replicates CO 1-3): 44,392 and 62,516 and 90,486 | Peak Height Guanosine triphosphate (HMDB01273, MCF7/TGL cells treated with CO, replicates CO 1-3): 84,003 and 60,453 and 112,154 | Peak Height N6,N6,N6-Trimethyl-L-lysine (HMDB01325, MCF7/TGL cells treated with CO, replicates CO 1-3): 4,594,085 and 5,317,512 and 7,697,279 | Peak Height ADP (HMDB01341, MCF7/TGL cells treated with CO, replicates CO 1-3): 902,793 and 705,422 and 1,082,377 | Peak Height Thymidine 5′-triphosphate (HMDB01342, MCF7/TGL cells treated with CO, replicates CO 1-3): 54,889 and 34,363 and 35,046 | Peak Height N-Acetyl-glucosamine 1-phosphate (HMDB01367, MCF7/TGL cells treated with CO, replicates CO 1-3): 464,872 and 467,412 and 595,300 | Peak Height Guanosine monophosphate (HMDB01397, MCF7/TGL cells treated with CO, replicates CO 1-3): 73,405 and 58,750 and 80,249 | Peak Height Glucose 6-phosphate (HMDB01401, MCF7/TGL cells treated with CO, replicates CO 1-3): 1,799,795 and 2,339,699 and 3,140,759 | Peak Height Niacinamide (HMDB01406, MCF7/TGL cells treated with CO, replicates CO 1-3): 1,738,434 and 1,604,153 and 3,615,850 | Peak Height Citicoline (HMDB01413, MCF7/TGL cells treated with CO, replicates CO 1-3): 1,054,917 and 1,269,775 and 2,126,892 | Peak Height NADH (HMDB01487, MCF7/TGL cells treated with CO, replicates CO 1-3): 81,979 and 73,214 and 61,204 | Peak Height Asymmetric dimethylarginine (HMDB01539, MCF7/TGL cells treated with CO, replicates CO 1-3): 2,485,123 and 2,893,325 and 4,095,202 | Peak Height CDP (HMDB01546, MCF7/TGL cells treated with CO, replicates CO 1-3): 49,666 and 36,830 and 44,004 | Peak Height D-Ribose 5-phosphate (HMDB01548, MCF7/TGL cells treated with CO, replicates CO 1-3): 523,976 and 578,358 and 695,562 | Peak Height CDP-Ethanolamine (HMDB01564, MCF7/TGL cells treated with CO, replicates CO 1-3): 229,328 and 262,826 and 313,255 | Peak Height Phosphorylcholine (HMDB01565, MCF7/TGL cells treated with CO, replicates CO 1-3): 826,434,500 and 950,902,100 and 1,062,045,000 | Peak Height Glucose 1-phosphate (HMDB01586, MCF7/TGL cells treated with CO, replicates CO 1-3): 194,892 and 220,042 and 348,617 | Peak Height 2-Hydroxycaproic acid (HMDB01624, MCF7/TGL cells treated with CO, replicates CO 1-3): 663,141 and 926,482 and 905,559 | Peak Height DL-O-Phosphoserine (HMDB01721, MCF7/TGL cells treated with CO, replicates CO 1-3): 256,439 and 305,155 and 440,561 | Peak Height 2-Ketohexanoic acid (HMDB01864, MCF7/TGL cells treated with CO, replicates CO 1-3): 10,109,740 and 13,290,500 and 25,544,760 | Peak Height Acetylcysteine (HMDB01890, MCF7/TGL cells treated with CO, replicates CO 1-3): 309,165 and 445,217 and 662,532 | Peak Height Methionine sulfoxide (HMDB02005, MCF7/TGL cells treated with CO, replicates CO 1-3): 1,119,307 and 1,490,306 and 2,521,401 | Peak Height Imidazolelactic acid (HMDB02320, MCF7/TGL cells treated with CO, replicates CO 1-3): 128,890 and 215,532 and 355,864 | Peak Height Methylimidazoleacetic acid (HMDB02820, MCF7/TGL cells treated with CO, replicates CO 1-3): 2,032,579 and 2,307,084 and 4,227,106 | Peak Height Erythritol (HMDB02994, MCF7/TGL cells treated with CO, replicates CO 1-3): 124,085 and 149,580 and 273,411 | Peak Height Oxidized glutathione (HMDB03337, MCF7/TGL cells treated with CO, replicates CO 1-3): 1,351,310 and 1,735,245 and 4,066,758 | Peak Height L-Dihydroorotic acid (HMDB03349, MCF7/TGL cells treated with CO, replicates CO 1-3): 52,713 and 82,695 and 121,047 | Peak Height GDP-glucose (HMDB03351, MCF7/TGL cells treated with CO, replicates CO 1-3): 30,304 and 39,328 and 68,617 | Peak Height N-Acetylornithine (HMDB03357, MCF7/TGL cells treated with CO, replicates CO 1-3): 364,451 and 403,207 and 622,448 | Peak Height 4-Acetamidobutanoic acid (HMDB03681, MCF7/TGL cells treated with CO, replicates CO 1-3): 550,530 and 718,720 and 878,912 | Peak Height N-Acetylasparagine (HMDB06028, MCF7/TGL cells treated with CO, replicates CO 1-3): 279,146 and 204,547 and 192,934 | Peak Height N-Acetylglutamine (HMDB06029, MCF7/TGL cells treated with CO, replicates CO 1-3): 233,588 and 221,551 and 457,769 | Peak Height ADP-glucose (HMDB06557, MCF7/TGL cells treated with CO, replicates CO 1-3): 51,484 and 47,964 and 81,136 | Peak Height 4-Hydroxybenzaldehyde (HMDB11718, MCF7/TGL cells treated with CO, replicates CO 1-3): 1,638,500 and 1,711,975 and 2,780,422 | Peak Height N-Acetyl-L-methionine (HMDB11745, MCF7/TGL cells treated with CO, replicates CO 1-3): 1,517,454 and 1,648,819 and 2,302,821 | Peak Height D-2,3-Dihydroxypropanoic acid (HMDB31818, MCF7/TGL cells treated with CO, replicates CO 1-3): 2,390,333 and 3,141,171 and 4,932,187 | Peak Height 3-hydroxyhexadecanoic acid (HMDB61658, MCF7/TGL cells treated with CO, replicates CO 1-3): 11,142 and 13,344 and 11,314 | citric acid and phosphoenolpyruvic acid [1]: did not provide statistically significant results | nine common metabolites (fumaric acid, L-Dihydroorotic acid, D-2-Hydroxyglutaric, malic acid, NAD, GDP-glucose, pyruvic acid, inosinic acid, oxoglutaric acid) [1]: significantly downregulated | pyruvic acid, oxoglutaric acid, malic acid, and fumaric acid (TCA intermediates) [1]: significantly downregulated | succinic acid [1]: significantly downregulated | abundance of metabolites tested (metabolomics profiling) (MCF7/TGL/pQ cells, 250 ppm carbon monoxide for 16 hours): reduced the abundance of the majority of metabolites tested
